Assay results as given in patent US20210391038A1, “SPECIFICALLY-SHAPED CRYSTAL OF COMPOUND AND METHOD FOR PRODUCING SAME” (TOWA PHARMACEUTICAL CO., LTD., priority 2018, published 2021).
Counter-ions that a name gives are not always drawn. Like-named read-outs stand apart in the source and are kept apart here.

Assays:
Type in all cases: physicochemical
[1] = Particle size from SEM images (equivalent circle diameter, mean particle size, crystal size); conditions: for equivalent circle diameter: SEM image, ImageJ, trihydrate
Method: “Equivalent circle diameter” in the present description is a diameter of a perfect circle corresponding to the area of individual particles in an image of particles taken by SEM, and is calculated from randomly selected 5 to 800 particles using image processing software ImageJ. The equivalent circle diameter of a spherulite obtained by the method of the present invention is preferably 25 μm or more, 30 μm or more, 35 μm or more, 40 μm or more, 45 μm or more, or 50 μm or more and 100 μm or less, 120 μm or less, 150 μm or less, 200 μm or less, 250 μm or less, 300 μm or less, 500 μm or less, or 1,000 μm or less. More preferably, the equivalent circle diameter is 25 to 500 μm or 30 to 300 μm.
(§1) The particle size distribution was measured in a dry manner using a spray particle size distribution analyzer AEROTRAC LDSA-SPR3500A manufactured by Microtrac Inc. The particle size distribution in Examples 2 and 7 was measured in a dry manner using a laser diffraction particle size distribution measurement MASTERSIZER 3000 manufactured by Malvern Panalytical Ltd. SEM images were measured using a scanning electron microscope JSM-IT100 manufactured by JEOL Ltd. Light microscope images were measured using an upright microscope BX53M manufactured by Olympus Corporation and a microscope digital camera DP74 manufactured by Olympus Corporation. Images for measuring the number of particles were obtained by a scanner GT-X830 manufactured by SEIKO EPSON CORPORATION. The powder X-ray diffraction (XRD) was measured using a desktop X-ray diffraction device MiniFlex300 manufactured by Rigaku Corporation. The specific surface area was measured by the BET fluid process (gas used: pure nitrogen) using a fully automatic specific surface area measuring device Macsorb HM-1208 manufactured by Mountech Co., Ltd. The moisture content was measured using a trace moisture measuring device AQ-2200 manufactured by […] SANGYO Co., Ltd. The dissolution profile was measured using μDISS Profiler manufactured by Pion Inc. Centrifugal classification was performed using a high-efficiency precision forced air classifier Lab Calssiel N-01 manufactured by SEISHIN […] Co., Ltd. Image analysis was performed using image processing software ImageJ developed by the National Institute of Health (NIH). The particle strength was measured using a particle hardness measuring device NEW GRANO manufactured by OKADA SEIKO CO., LTD. The true density was measured using a dry automatic densimeter AccuPyc II 1340-10CC manufactured by Shimadzu Corporation. The purity of a compound was measured by a high performance liquid chromatograph (LC-20A) manufactured by Shimadzu Corporation.
The spherulite of azithromycin monohydrate produced in Example 12 was cut, and the section was observed by SEM (FIG. 4). The crystal size at the outer edge was 5 to 10 μm, while the crystal size at the center was 0.2 to 1 μm.

[2] = Sphericity from SEM images (ImageJ); set-up: key: 1 = true sphere; closer to 1 = more spherical; mean of ≥5 particles; conditions: for sphericity of the spherulite: SEM image analysis, mean of particles
Source text: In the present description, “spherulite” means a crystal aggregate (polycrystal) which has a radial or concentric thin layered structure and has a spherical outer shape. Whether the crystal obtained by the method of the present invention is a spherulite or not can be determined, for example, by observing the outer shape of the crystal using SEM. For example, it can be discriminated by cutting the crystal aggregate and observing the internal structure thereof using SEM. The sphericity of the spherulite obtained by the method of the present invention is usually 0.60 or more, preferably 0.70 or more, more preferably 0.80 or more, particularly preferably 0.90 or more, and most preferably 0.95 or more. The sphericity can be calculated by the following method.
When an image of particles taken by SEM is analyzed using image processing software ImageJ, a coordinate group representing the position of pixels forming the outline of a particle is obtained. The length of the coordinate group is defined as N, and one pixel coordinate of each outline is defined as p[i] (1≤i≤N). The angle between a straight line l(k) connecting two points p[k] and p[k+N/D] and a straight line m(k) connecting two points p[k+N/D] and p[k+2N/D] is defined as θ(k) (−180°<θ<180°) (1≤k≤N, 1≤D≤N). D corresponds to the number of partitions of the outline. When N/D is not a natural number, the value is defined as the quotient obtained by dividing N by D. By calculating this angle with k=1 to N, N pieces of θ value can be obtained.
When the particle is a true sphere, θ(k) is 360/D, and the closer the particle is to a true sphere, the closer θ(k) is to this value. The error between θ(k) and the true value 360/D is evaluated by the root-mean-square error (RMSE) of the following formula:
Using the RMSE value of when D is 10 (θ(k)=36°), the sphericity is defined by the following formula: […]
The sphericity is 1 in a true sphere, and the closer the particle is to a true sphere, the closer the sphericity is to 1. Meanwhile, the sphericity of an ellipse whose long axis is infinitely long is zero. The sphericity is measured for five or more particles to calculate the mean. This mean is defined as the sphericity of each sample (see FIGS. 42 and 43).

Particle strength = assay: Particle strength
Source text: Furthermore, a polycrystal with a high particle density also has a high particle strength. When a polycrystal, particularly a spherulite, is used as a raw material for production of drugs, a problem occurs in which wear in a formulation step leads to deterioration of yield or quality or both, and a polycrystal with a high particle strength has an advantage in this regard. When a specifically-shaped crystal obtained by the present invention is a polycrystal, the particle strength is preferably 1.0 MPa or more, more preferably 1.5 MPa or more, still more preferably 2.0 MPa, yet more preferably 2.5 MPa or more, and particularly preferably 3.0 MPa or more. The particle strength is calculated by measuring the force at which a particle breaks when load is applied to one particle and the particle size. Specifically, the particle strength is calculated by the following formula in accordance with JIS R 1639-5. Examples of a measuring device include a particle hardness measuring device NEW GRANO manufactured by OKADA SEIKO CO., LTD. and a micro compression testing machine MCT manufactured by Shimadzu Corporation. […]
The particle strength of the spherulite of esomeprazole magnesium trihydrate obtained in Example 2, the spherulite of esomeprazole magnesium trihydrate obtained in Example 5, and the spherulite of esomeprazole magnesium trihydrate obtained in Example 6 was measured.

[3] = Particle size distribution (d50, sharpness index); set-up: key to sharpness index of the crystal thus obtained / sharpness index of the fine powders: calculated by formula from d10, d50, d90; 1.0 = most uniform particle size; conditions: for d50: samples of dissolution test (Table 4)
Source text: d10 in the present description is a value obtained from a particle size distribution analyzer, and represents a particle size of a particle corresponding to 10% of accumulation from the smaller particle side in the particle size distribution based on the volume.
d50 in the present description is a value obtained from a particle size distribution analyzer, and represents a particle size of a particle corresponding to 50% of accumulation from the smaller particle side in the particle size distribution based on the volume.
“Sharpness index” in the present description is an index representing the uniformity of a particle size of a particle in a powder, and a sharpness index of 1.0 represents a powder having the most uniform particle size. The closer the sharpness index is to 1.0, the more the particle size of the powder is uniform. Specifically, the sharpness index represents a value calculated using the following formula from the values of d10, d50, and d90 measured by a particle size distribution analyzer:
Images for measuring the number of particles were obtained by a scanner GT-X830 manufactured by SEIKO EPSON CORPORATION. The powder X-ray diffraction (XRD) was measured using a desktop X-ray diffraction device MiniFlex300 manufactured by Rigaku Corporation. […] The particle strength was measured using a particle hardness measuring device NEW GRANO manufactured by OKADA SEIKO CO., LTD. […] The purity of a compound was measured by a high performance liquid chromatograph (LC-20A) manufactured by Shimadzu Corporation.

[4] = Specific surface area (BET fluid process); conditions: nitrogen, trihydrate
Method: as §1, with “Images for measuring the number of particles were obtained by a scanner GT-X830 manufactured by SEIKO EPSON CORPORATION.” left out, “Co., Ltd. Image analysis was performed using image processing software ImageJ developed by the National Institute of Health (NIH). The particle strength was measured using a particle hardness measuring device NEW GRANO manufactured by OKADA SEIKO CO., LTD. The true density was measured using a dry automatic densimeter AccuPyc II 1340-10CC manufactured by Shimadzu Corporation. The purity of a compound was measured by a high performance liquid chromatograph (LC-20A) manufactured by Shimadzu Corporation.” left out

[5] = Measurement of dissolution profile (μDISS Profiler); conditions: 30 mg in 10 mL phosphate buffer pH 6.8, 37° C., 300 rpm
Method: The dissolution profile is described by the zero-order model, the first-order model, the Weibull model, the Higuchi model, the Hixson-Crowell model, the Korsmeyer-Peppas model, the Baker-Lonsdale model, the Hopfenberg model, and the like. The Weibull model is represented by the following formula: […]
The particle size distribution was measured in a dry manner using a spray particle size distribution analyzer AEROTRAC LDSA-SPR3500A manufactured by Microtrac Inc. The particle size distribution in Examples 2 and 7 was measured in a dry manner using a laser diffraction particle size distribution measurement MASTERSIZER 3000 manufactured by Malvern Panalytical Ltd. SEM images were measured using a scanning electron microscope JSM-IT100 manufactured by JEOL Ltd. Light microscope images were measured using an upright microscope BX53M manufactured by Olympus Corporation and a microscope digital camera DP74 manufactured by Olympus Corporation. […] The powder X-ray diffraction (XRD) was measured using a desktop X-ray diffraction device MiniFlex300 manufactured by Rigaku Corporation. The specific surface area was measured by the BET fluid process (gas used: pure nitrogen) using a fully automatic specific surface area measuring device Macsorb HM-1208 manufactured by Mountech Co., Ltd. The moisture content was measured using a trace moisture measuring device AQ-2200 manufactured by […] […]

[6] = calculated from d10, d50, d90, trihydrate
[7] = dry particle size distribution, volume based, trihydrate

Cc1ccccc1C(=O)Nc1ccc(C(=O)N2CCCC(O)c3cc(Cl)ccc32)c(C)c1 (stereo not drawn) [Example 28, tolvaptan]
mean particle size [1]: 145 μm | sphericity of the spherulite [2]: 0.94±0.02

COc1ccc2[n-]c([S@@+]([O-])Cc3ncc(C)c(OC)c3C)nc2c1.COc1ccc2[n-]c([S@@+]([O-])Cc3ncc(C)c(OC)c3C)nc2c1.O.O.O.[Mg+2] [Example 6, esomeprazole magnesium trihydrate]
sphericity of the spherulite ([2]; trihydrate): 0.96±0.01 | Particle strength (Particle strength; trihydrate): 2.9 ± 0.5 MPa | d50 of the crystal thus obtained [3]: 91.5 | sharpness index of the crystal thus obtained [3]: 1.45

COc1cccc(C2(O)CCCCC2CN(C)C)c1 (stereo not drawn) [Example 29, tramadol hydrochloride]
mean particle size [1]: 319 μm | sphericity of the spherulite [2]: 0.90±0.08

COc1ccc2[n-]c([S@@+]([O-])Cc3ncc(C)c(OC)c3C)nc2c1.COc1ccc2[n-]c([S@@+]([O-])Cc3ncc(C)c(OC)c3C)nc2c1.O.O.O.[Mg+2] [Ground product of non-spherulite, esomeprazole magnesium trihydrate]
Specific surface area [4]: 44.0 m^2/g | sphericity of the non-spherulite ([2]; non-spherulite crystals, trihydrate): 0.45±0.23 | d50 ([3]; trihydrate): 5.1 μm

COc1ccc2[n-]c([S@@+]([O-])Cc3ncc(C)c(OC)c3C)nc2c1.COc1ccc2[n-]c([S@@+]([O-])Cc3ncc(C)c(OC)c3C)nc2c1.O.O.O.[Mg+2] [Example 3, esomeprazole magnesium trihydrate]
equivalent circle diameter [1]: 58±7 μm | sphericity of the spherulite ([2]; trihydrate): 0.97±0.01

CN(C)CC/C=C1/c2ccccc2COc2ccc(CC(=O)O)cc21 [Example 31, olopatadine]
mean particle size [1]: 167 μm | sphericity of the spherulite [2]: 0.96±0.02

COc1ccc2[n-]c([S@@+]([O-])Cc3ncc(C)c(OC)c3C)nc2c1.COc1ccc2[n-]c([S@@+]([O-])Cc3ncc(C)c(OC)c3C)nc2c1.O.O.O.[Mg+2] [Example 4, esomeprazole magnesium trihydrate]
equivalent circle diameter [1]: 183±8 μm | sphericity of the spherulite ([2]; trihydrate): 0.93±0.02

COc1ccc2[n-]c([S@@+]([O-])Cc3ncc(C)c(OC)c3C)nc2c1.COc1ccc2[n-]c([S@@+]([O-])Cc3ncc(C)c(OC)c3C)nc2c1.O.O.O.[Mg+2] [Example 5, esomeprazole magnesium trihydrate]
sphericity of the spherulite ([2]; trihydrate): 0.89±0.05 | Particle strength (Particle strength): 2.3 ± 0.4 MPa | sharpness index of the crystal thus obtained [3, 6]: 1.4 | d50 of the crystal thus obtained [3, 7]: 149.9 μm

COc1ccc2[n-]c([S@@+]([O-])Cc3ncc(C)c(OC)c3C)nc2c1.COc1ccc2[n-]c([S@@+]([O-])Cc3ncc(C)c(OC)c3C)nc2c1.O.O.O.[Mg+2] [Example 8(1), esomeprazole magnesium trihydrate]
Specific surface area [4]: 22.6 m^2/g | sphericity of the spherulite ([2]; trihydrate): 0.95±0.03 | sharpness index of the crystal thus obtained [3, 6]: 2.2 | d50 of the crystal thus obtained [3, 7]: 33.0 μm | d50 ([3]; trihydrate): 33.0 μm | dissolution compared with the non-spherulite [5]: more rapid dissolution
